{"source": "patent US20240415790A1", "about": "“A COMPOSITION FOR USE IN THE TREATMENT OF INTERVERTEBRAL DISC HERNIATION” (STAYBLE THERAPEUTICS AB, priority 2020, published 2024)", "key": {"[1]": {"tested_on": "porcine lumbar spine (L3/4 IVD)", "test": "Flexural rigidity of the isolated porcine lumbar spine after intradiscal LA (series 1)", "assay_type": "in vivo, pig", "settings": "28 days", "experimental": "The pigs were pre-medicated by intramuscular injection of dexmedetomidin (Domitor®vet, Orion Pharma, Sollentuna, Sweden) and a commercial mixture of zolazepam and tiletamine (Zoletil®vet 100, Virbac, Carros, France) in conventional doses. Anesthesia was maintained by buprenophine ([…], Orion Pharma) 0.03 mg/kg intramuscularly, carpofen (Rimadyl®vet, Orion Pharma) 4 mg/kg intravenously and isoflurane ([…] Pharma AB, Stockholm, Sweden) using a Servo 900 respirator (Siemens, Munich, Germany). Before recovering from anesthesia, atipamezol (Antisedan®vet, Orion Pharma) was given intramuscularly. On the first three days after surgery the pigs received oral carprofen 2 mg/kg twice daily. The pigs were placed on the right side. […] The concentration was determined based on the pilot experiments on the effects of LA on collagen secretion from human NP cells (as described in WO 2017/046030). […] The height and width of normally appearing NP (FIG. 6a) in the anteroposterior (short vertical double arrow) and bilateral (short horizontal double arrow) directions, respectively, were measured and expressed in relation to the height (long vertical double arrow), and width (long horizontal double arrow) of the IVD. […] The distances between the lateral processes of the vertebrae cranially and caudally to the injected IVD was measured with a caliper at full ipsi- or contralateral flexion. […]"}, "porcine NP and AF": {"tested_on": "porcine NP and AF", "test": "Macroscopic and histological evaluation of porcine IVD after intradiscal or external LA (series 1 and 2)", "assay_type": "in vivo", "settings": "pig", "experimental": "The pigs were placed on the right side. A 6 cm long incision was made from the costal arch to the iliac crest, just lateral to the lateral processes. The lumbar IVDs were approached by a retroperitoneal technique. The L3/4 IVD was incised and 0.2 mL of the LA-formulation (n=6) or the placebo (n=2) was injected under fluoroscopic guidance. The LA-formulation was composed of LA (120 mg/mL) and iohexol (180 mg I/mL) while placebo consisted of iohexol only. The concentration was determined based on the pilot experiments on the effects of LA on collagen secretion from human NP cells (as described in WO 2017/046030). In this set of in vivo experiments, the pH of the placebo formulation was adjusted to the same as the active formulation (about 1.5) using hydrochloric acid. The adjacent IVDs were not injected and served as negative controls. The volume of the pig NP is about 1 mL and it was estimated that 0.2 mL would be an appropriate injection volume. The height and width of normally appearing NP (FIG. 6a) in the anteroposterior (short vertical double arrow) and bilateral (short horizontal double arrow) directions, respectively, were measured and expressed in relation to the height (long vertical double arrow), and width (long horizontal double arrow) of the IVD. […] The group data for NP height as percent of total IVD height are shown in FIG. 7 and the corresponding data for NP width are illustrated in FIG. 8. Further, the IVD was cut in half and photographed. The bilateral width and anteroposterior height of normally appearing NP was measured and expressed as percent of the total IVD width and height, respectively, as depicted in FIGS. 7 and 8. The aim of the second series (including 16 pigs) was to assess the safety and efficacy of the treatment and was part of the regulatory documentation required by the Swedish Medical Products Agency to initiate studies in humans. All procedures were as described above, with the following exceptions. […] In one group of animals, LA or placebo was applied onto the IVD outside the spinal foramen (external application) to assess any tissue damage resulting from leakage from the IVD or a misdirected injection. Due to this experimental design, spinal flexural stiffness was not measured in these pigs. The only other difference between the two series was that exposed tissues were evaluated histologically in the second but not first series. The lumbar spine was removed en bloc and any pathological changes were assessed macroscopically and photographed in extradiscal tissue onto which LA had been applied. Specimens of spinal nerves and muscle tissue were collected, fixed in 10% formalin, and processed for microscopy with hematoxylin/eosin staining. Injected IVDs were cut in half, inspected macroscopically, and photographed. Samples of the IVD were collected and processed for microscopy with hematoxylin/eosin. These turned out to include AF but very little NP so in order to obtain an improved overview of the IVD, the IVDs with adhering vertebrae were decalcified to enable preparation of axial sections of the whole IVD which were stained with Massons's trichrome. FIG. 9 illustrates effects of LA on the AF (A,B) and NP (C-J). LA or placebo (0.2 mL) was injected into IVDs of anesthetized pigs. The animals were sacrificed 4 or 12 weeks post injection and the IVDs were sectioned in half. After fixation in 10% formalin, decalcification and paraffin embedding, sections were cut at 5 μm and stained with hematoxylin&eosin (A,B) or Masson's trichrome (C-J). Fibrocartilagenous cells can be seen in the AF from untreated IVDs (arrows in A) but frequently, multicellular chondrons appeared after injection of LA (240 mg/mL, 12 weeks survival; arrows in B). NP of an untreated (extradiscal injection) IVD (C) consists of islets of notochordal cells (asterisk) embedded in weakly stained extracellular matrix. In LA-treated NP, collagenous fibers can be seen (asterisks in D; 120 mg/mL LA, 4 weeks survival and E; 120 mg/mL LA, 12 weeks survival). […]"}}}
{"compound": "CC(O)C(=O)O", "note": "(centres unmarked) [LA, lactic acid]", "values": [{"measurement": "Flexural rigidity (mm, mean ± SD)", "setting": "[1]; pig L3/4 IVD, 0.2 mL LA 120 mg/mL intradiscal, n=6, difference of process distances at full flexion (lower = stiffer)", "value": "2.7 ± 1.1", "unit": "mm"}, {"measurement": "Flexural rigidity, LA- vs placebo-injected and naive IVDs", "setting": "[1]; pig, LA 120 mg/mL", "value": "marked difference in flexural rigidity"}, {"measurement": "Fibrotic changes at sites of extradiscal administration", "setting": "porcine NP and AF; 28-day follow-up, external 120 mg/mL", "value": "No fibrotic changes"}, {"measurement": "Histological changes of the NP", "setting": "porcine NP and AF; 28-day follow-up, intradiscal 120 or 240 mg/mL", "value": "Dense bundles of fibrotic tissue"}, {"measurement": "NP size (macroscopic)", "setting": "porcine NP and AF; 28 and 84 days after LA treatment vs normally appearing NP", "value": "reduction in NP size"}, {"measurement": "Histological changes of the NP", "setting": "porcine NP and AF; 84-day follow-up, intradiscal 120 or 240 mg/mL", "value": "sclerosis (FIG. 9D-J), cystic degeneration (FIG. 9J), cartilaginous metaplasia (FIG. 9F, 9G), osteoid islands (FIG. 9F, 9G) and reduction in the extracellular matrix"}, {"measurement": "Histological changes of the NP", "setting": "porcine NP and AF; two days after intradiscal injection", "value": "marked histological changes characterized by lysis of the extracellular matrix"}, {"measurement": "Hemorrhage and inflammatory changes, LA vs vehicle", "setting": "porcine NP and AF; two-day follow up, intradiscal injection", "value": "not obviously more marked"}]}
